This is an account of results in US7446199B2, “Compositions useful as inhibitors of protein kinases” (Vertex Pharmaceuticals Incorporated, priority 2003, dated 2008).

Where “and” joins values, the source holds several entries; their conditions need not be identical. Equal values may be shown once. A value given as a limit tells only on which side of the number the result lay.

The term Ki denotes a dissociation constant, usually derived from enzyme kinetics or from competition with a known ligand. High values mean lower affinity, low ones higher affinity.

Holding throughout (assay type): biochemical
The target of one assay is T1, JAK3 (Homo sapiens, UniProt P52333).
T1 sequence (P52333 1-1124): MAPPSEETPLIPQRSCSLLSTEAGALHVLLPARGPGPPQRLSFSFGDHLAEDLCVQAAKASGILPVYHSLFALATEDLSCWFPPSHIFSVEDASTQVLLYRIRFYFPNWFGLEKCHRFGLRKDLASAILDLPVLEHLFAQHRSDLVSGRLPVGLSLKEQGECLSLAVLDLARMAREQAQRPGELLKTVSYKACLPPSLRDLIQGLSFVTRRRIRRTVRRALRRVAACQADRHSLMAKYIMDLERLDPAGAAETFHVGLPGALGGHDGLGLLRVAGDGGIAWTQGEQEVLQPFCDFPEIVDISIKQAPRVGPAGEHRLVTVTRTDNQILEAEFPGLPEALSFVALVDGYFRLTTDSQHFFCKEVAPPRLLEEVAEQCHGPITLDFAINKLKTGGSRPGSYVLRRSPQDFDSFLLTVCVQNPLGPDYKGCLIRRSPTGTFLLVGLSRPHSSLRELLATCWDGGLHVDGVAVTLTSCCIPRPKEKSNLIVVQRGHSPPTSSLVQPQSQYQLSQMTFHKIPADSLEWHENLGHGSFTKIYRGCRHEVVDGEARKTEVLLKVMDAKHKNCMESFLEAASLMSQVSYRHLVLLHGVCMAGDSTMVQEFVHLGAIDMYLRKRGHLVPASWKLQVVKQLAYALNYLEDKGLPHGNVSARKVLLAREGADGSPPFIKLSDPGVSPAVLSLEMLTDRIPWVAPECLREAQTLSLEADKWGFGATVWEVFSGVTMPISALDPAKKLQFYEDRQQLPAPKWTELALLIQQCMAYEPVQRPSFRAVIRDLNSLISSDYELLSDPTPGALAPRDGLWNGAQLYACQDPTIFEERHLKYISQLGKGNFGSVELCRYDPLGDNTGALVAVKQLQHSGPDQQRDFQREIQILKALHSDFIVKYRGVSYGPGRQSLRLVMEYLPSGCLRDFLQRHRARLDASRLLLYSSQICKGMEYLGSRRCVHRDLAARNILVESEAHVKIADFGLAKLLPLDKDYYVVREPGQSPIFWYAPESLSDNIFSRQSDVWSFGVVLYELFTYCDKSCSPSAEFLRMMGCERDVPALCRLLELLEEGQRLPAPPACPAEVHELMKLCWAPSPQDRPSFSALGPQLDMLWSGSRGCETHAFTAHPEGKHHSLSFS
As to the kind of experiment: JAK3 inhibition assay (ELISA, Poly (Glu, Ala, Tyr) coated plates). The conditions noted are these: 2 mM ATP, 60 minutes at 30° C. The method in brief:
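ELISA on Poly(Glu,Ala,Tyr) 6:3:1-coated plates with 2 mM ATP and 5 mM MgCl2. JAK enzyme started the reaction, run 60 min at 30° C. Phosphotyrosine was detected with HRP-conjugated 4G10 antibody and TMB, read at 450 nm, and IC50 was derived from optical densities.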
For orientation: ELISA stands for enzyme-linked immunosorbent assay.

The target of another assay is KDR (Homo sapiens, UniProt P35968). As to the kind of experiment: KDR enzyme assay, coupled enzyme assay. The conditions noted are these: 300 μM ATP, 10 μM poly E4Y, 30 nM KDR, 37° C. The method in brief:
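Coupled enzyme (PK/LDH, NADH) assay with 30 nM KDR in 200 mM HEPES 7.5, 10 mM MgCl2, 25 mM NaCl, 1 mM DTT, 1.5% DMSO; 300 μM ATP, 10 μM poly E4Y. Compound at 30 μM final, preincubated ~10 min at 37 °C before ATP start; rates read over 5 min at 37 °C.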

Another assay deals with T2, c-KIT (Homo sapiens, UniProt P10721).
T2 construct: 0.02% BSA and 25 nM c-KIT
As to the kind of experiment: Inhibition of c-KIT, radiometric filter-binding assay. The conditions noted are these: 700 μM ATP, 0.5 mg/mL pE4Y, room temperature. The method in brief:
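Radiometric filter-binding: 25 nM c-KIT (enzyme in the Solution 2 mix) with poly(Glu,Tyr) 4:1 substrate at 0.5 mg/mL and [γ-^33P]ATP at 700 μM (both final), in HEPES pH 7.5/MgCl2/NaCl/DTT/BSA with 2.5% DMSO. Incubated 20 min at room temperature, stopped with TCA, and ^33P incorporation counted on filters. 12-point titration, final compound typically 0.01-5 μM; IC50 or Ki from curve fit.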

T2 sequence (P10721 26-976): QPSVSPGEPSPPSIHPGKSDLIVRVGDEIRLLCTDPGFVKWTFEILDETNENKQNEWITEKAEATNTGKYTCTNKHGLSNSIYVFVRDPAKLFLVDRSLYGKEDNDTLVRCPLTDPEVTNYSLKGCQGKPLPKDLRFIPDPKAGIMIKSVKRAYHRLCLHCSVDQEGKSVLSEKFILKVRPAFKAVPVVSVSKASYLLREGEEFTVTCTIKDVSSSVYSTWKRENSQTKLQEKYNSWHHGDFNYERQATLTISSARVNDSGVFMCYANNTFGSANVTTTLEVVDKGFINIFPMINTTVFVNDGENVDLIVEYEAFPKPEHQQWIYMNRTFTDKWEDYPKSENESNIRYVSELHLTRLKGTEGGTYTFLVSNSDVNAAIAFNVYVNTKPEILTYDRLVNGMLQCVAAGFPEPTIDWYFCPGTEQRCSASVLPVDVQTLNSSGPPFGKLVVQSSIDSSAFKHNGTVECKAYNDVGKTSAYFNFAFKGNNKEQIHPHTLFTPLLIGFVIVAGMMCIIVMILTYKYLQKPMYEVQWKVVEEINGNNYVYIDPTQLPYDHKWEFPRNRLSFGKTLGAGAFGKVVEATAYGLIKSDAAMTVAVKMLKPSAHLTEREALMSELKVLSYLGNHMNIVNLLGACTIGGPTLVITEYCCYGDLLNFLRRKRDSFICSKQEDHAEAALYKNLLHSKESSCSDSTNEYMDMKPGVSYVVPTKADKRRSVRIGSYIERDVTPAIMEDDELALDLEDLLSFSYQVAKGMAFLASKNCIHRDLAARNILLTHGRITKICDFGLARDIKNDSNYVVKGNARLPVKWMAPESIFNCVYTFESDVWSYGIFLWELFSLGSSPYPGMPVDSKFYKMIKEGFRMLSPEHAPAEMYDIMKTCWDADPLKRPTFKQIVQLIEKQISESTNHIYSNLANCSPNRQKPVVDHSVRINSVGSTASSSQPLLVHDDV
KDR, sequence (P35968 20-1356): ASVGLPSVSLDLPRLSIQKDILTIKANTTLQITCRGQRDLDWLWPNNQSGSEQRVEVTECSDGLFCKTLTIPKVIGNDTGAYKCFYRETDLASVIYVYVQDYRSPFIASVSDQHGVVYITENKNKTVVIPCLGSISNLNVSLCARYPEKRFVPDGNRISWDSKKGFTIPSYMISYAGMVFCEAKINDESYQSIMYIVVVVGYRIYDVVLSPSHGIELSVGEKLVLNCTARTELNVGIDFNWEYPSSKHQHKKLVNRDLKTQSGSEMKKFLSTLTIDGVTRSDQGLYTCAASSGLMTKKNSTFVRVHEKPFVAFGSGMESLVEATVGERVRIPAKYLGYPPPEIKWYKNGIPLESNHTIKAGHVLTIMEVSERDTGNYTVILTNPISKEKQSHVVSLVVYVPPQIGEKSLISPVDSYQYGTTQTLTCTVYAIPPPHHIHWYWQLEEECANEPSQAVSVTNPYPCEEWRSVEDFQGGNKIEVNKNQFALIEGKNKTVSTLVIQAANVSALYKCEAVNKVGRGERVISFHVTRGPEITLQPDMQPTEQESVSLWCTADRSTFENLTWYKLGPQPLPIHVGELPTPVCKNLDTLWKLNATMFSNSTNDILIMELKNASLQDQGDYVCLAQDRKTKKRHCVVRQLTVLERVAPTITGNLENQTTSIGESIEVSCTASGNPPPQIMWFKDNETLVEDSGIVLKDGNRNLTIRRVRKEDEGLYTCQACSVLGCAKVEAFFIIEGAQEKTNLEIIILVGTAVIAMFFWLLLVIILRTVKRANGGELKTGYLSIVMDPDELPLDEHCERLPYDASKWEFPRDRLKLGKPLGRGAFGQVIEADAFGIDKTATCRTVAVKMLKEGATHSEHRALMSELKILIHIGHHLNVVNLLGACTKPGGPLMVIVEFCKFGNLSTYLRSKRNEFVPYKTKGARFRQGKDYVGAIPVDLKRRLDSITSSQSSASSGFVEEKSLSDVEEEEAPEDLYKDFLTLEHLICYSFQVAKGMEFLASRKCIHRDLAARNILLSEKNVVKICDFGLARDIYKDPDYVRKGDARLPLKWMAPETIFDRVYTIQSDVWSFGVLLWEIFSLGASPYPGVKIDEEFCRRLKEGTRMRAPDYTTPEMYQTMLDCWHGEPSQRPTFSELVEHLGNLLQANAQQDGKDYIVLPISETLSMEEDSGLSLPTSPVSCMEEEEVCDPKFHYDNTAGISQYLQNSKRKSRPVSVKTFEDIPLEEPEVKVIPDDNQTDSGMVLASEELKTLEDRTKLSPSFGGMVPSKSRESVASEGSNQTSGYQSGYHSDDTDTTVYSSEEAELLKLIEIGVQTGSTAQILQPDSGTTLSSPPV

With `Fc1cccc(-c2cnoc2-c2c[nH]c3ncc(-c4ccc(CN5CCOCC5)cc4)cc23)c1F` [Compound 92, 3-[4-(2,3-Difluoro-phenyl)-isoxazol-5-yl]-5-(4-morpholin-4-ylmethyl-phenyl)-1H-pyrrolo[2,3-b]pyridine], the inhibition constant Ki on JAK3 was below 0.2 µM; at KDR, 0.2 to 1 µM; at c-KIT it was below 0.2 µM.

As to `Nc1cccc(-c2cnc3[nH]cc(-c4oncc4-c4cccc(F)c4F)c3c2)c1` [Compound 86, 3-{3-[4-(2,3-Difluoro-phenyl)-isoxazol-5-yl]-1H-pyrrolo [2,3-b]pyridin-5-yl}-phenylamine], the Ki at JAK3 was below 0.2 µM; at KDR, < 0.2 µM and 1 to 12.5 µM; at c-KIT it was below 0.2 µM.

With `Oc1cnc2[nH]cc(-c3oncc3-c3cccc(Cl)c3Cl)c2c1` [Compound 48, 3-[4-(2,3-Dichloro-phenyl)-isoxazol-5-yl]-1H-pyrrolo[2,3-b]pyridin-5-ol], the results for the inhibition constant Ki at JAK3, at KDR and at c-KIT were below 0.2 µM, below 0.2 µM and 0.2 to 1 µM, respectively.

`CN1CCN(c2ccc(-c3cnc4[nH]cc(-c5oncc5-c5cccc(F)c5F)c4c3)cn2)CC1` [Compound 71, 3-[4-(2,3-Difluoro-phenyl)-isoxazol-5-yl]-5-[6-(4-methyl-piperazin-1-yl)-pyridin-3-yl]-1H-pyrrolo[2,3-b]pyridine]: the inhibition constant Ki on JAK3, at KDR and at c-KIT was below 0.2 µM in each case.

Regarding `COc1cnc2[nH]cc(-c3oncc3-c3cccc(Cl)c3Cl)c2c1` [Compound 49, 3-[4-(2,3-Dichloro-phenyl)-isoxazol-5-yl]-5-methoxy-1H-pyrrolo[2,3-b]pyridine], the inhibitory constant (Ki) at JAK3, on KDR and at c-KIT was below 0.2 µM throughout.

Take `Nc1ccc(-c2cnc3[nH]cc(-c4oncc4-c4cccc(F)c4F)c3c2)cc1` [Compound 90, 4-{3-[4-(2,3-Difluoro-phenyl)-isoxazol-5-yl]-1H-pyrrolo [2,3-b]pyridin-5-yl}-phenylamine]: the inhibition constant (Ki) on JAK3, at KDR and at c-KIT was below 0.2 µM each time.

For `Clc1cccc(-c2cnoc2-c2c[nH]c3ncc(-c4cccnc4)cc23)c1Cl` [Compound 99, 3-[4-(2,3-Dichloro-phenyl)-isoxazol-5-yl]-5-pyridin-3-yl-1H-pyrrolo[2,3-b]pyridine], the Ki on JAK3, on KDR and at c-KIT was below 0.2 µM throughout.

Consider `Fc1cccc(-c2cnoc2-c2c[nH]c3ncc(C4=CCC(NCc5ccccc5)CC4)cc23)c1F` (stereo not drawn) [Compound 136, Benzyl-(4-{3-[4-(2,3-difluoro-phenyl)-isoxazol-5-yl]-1H-pyrrolo[2,3-b]pyridin-5-yl}-cyclohex-3-enyl)-amine], for which the figures for the inhibitory constant (Ki) at JAK3, on KDR and at c-KIT were below 0.2 µM, 0.2 to 1 µM and below 0.2 µM, respectively.

`Cc1noc(-c2c[nH]c3ncc(-c4ccc(N5CCN(C)CC5)cc4)cc23)c1-c1cccc(F)c1F` [Compound 135, 3-[4-(2,3-Difluoro-phenyl)-3-methyl-isoxazol-5-yl]-5-[4-(4-methyl-piperazin-1-yl)-phenyl]-1H-pyrrolo[2,3-b]pyridine]: the inhibition constant (Ki) was below 0.2 µM on JAK3, 0.2 to 1 µM on KDR and below 0.2 µM at c-KIT.

For `CN1CCN(c2ccc(-c3cnc4[nH]cc(-c5nncn5-c5cccc(F)c5F)c4c3)cc2)CC1` [Compound 110, 3-[4-(2,3-Difluoro-phenyl)-4H-[1,2,4]triazol-3-yl]-5-[4-(4-methyl-piperazin-1-yl)-phenyl]-1H-pyrrolo[2,3-b]pyridine], the Ki is 0.2 to 1 µM on JAK3, 0.2 to 1 µM on KDR and below 0.2 µM at c-KIT.

For `COC(=O)c1cnc2[nH]cc(-c3oncc3-c3cccc(F)c3F)c2c1` [Compound 105, 3-[4-(2,3-Difluoro-phenyl)-isoxazol-5-yl]-1H-pyrrolo[2,3-b]pyridine-5-carboxylic acid methyl ester], the figures for the Ki at JAK3, at KDR and at c-KIT were below 0.2 µM, 0.2 to 1 µM and below 0.2 µM, respectively.

With `Fc1cccc(-n2cnnc2-c2c[nH]c3ncc(-c4ccc(N5CCCC5)nc4)cc23)c1F` [Compound 118, 3-[4-(2,3-Difluoro-phenyl)-4H-[1,2,4]triazol-3-yl]-5-(6-pyrrolidin-1-yl-pyridin-3-yl)-1H-pyrrolo[2,3-b]pyridine], the Ki at JAK3, at KDR and at c-KIT was 0.2 to 1 µM each time.

Consider `CN(C)CC#Cc1cnc2[nH]cc(-c3oncc3-c3cccc(F)c3F)c2c1` [Compound 53, (3-{3-[4-(2,3-Difluoro-phenyl)-isoxazol-5-yl]-1H-pyrrolo[2,3-b]pyridin-5-yl}-prop-2-ynyl)-dimethyl-amine], for which the values for the Ki at JAK3, at KDR and on c-KIT were 0.2 to 1 µM, 0.2 to 1 µM and below 0.2 µM, respectively.

For `CN(C)c1ccc(-c2cnc3[nH]cc(-c4nncn4-c4cccc(F)c4F)c3c2)cc1` [Compound 106, (4-{3-[4-(2,3-Difluoro-phenyl)-4H-[1,2,4]triazol-3-yl]-1H-pyrrolo[2,3-b]pyridin-5-yl}-phenyl)-dimethyl-amine], the Ki at JAK3 was 0.2 to 1 µM; on KDR, 0.2 to 1 µM; on c-KIT, below 0.2 µM.

Regarding `Nc1ccnc(-c2cnc3[nH]cc(-c4oncc4-c4cccc(F)c4F)c3c2)c1` [Compound 83, 2-{3-[4-(2,3-Difluoro-phenyl)-isoxazol-5-yl]-1H-pyrrolo [2,3-b]pyridin-5-yl}-pyridin-4-ylamine], the Ki on JAK3, on KDR and on c-KIT was below 0.2 µM throughout.

With `CN1CCN(c2ccc(-c3cnc4[nH]cc(-c5oncc5-c5cccc(F)c5F)c4c3)cc2)CC1` [Compound 70, 3-[4-(2,3-Difluoro-phenyl)-isoxazol-5-yl]-5-[4-(4-methyl-piperazin-1-yl)-phenyl]-1H-pyrrolo[2,3-b]pyridine methanesulfonate], the Ki on JAK3, on KDR and at c-KIT was below 0.2 µM throughout.

On to `CN(C)C1CC=C(c2cnc3[nH]cc(-c4oncc4-c4cccc(F)c4F)c3c2)CC1` (stereo not drawn) [Compound 138, (4-{3-[4-(2,3-Difluoro-phenyl)-isoxazol-5-yl]-1H-pyrrolo[2,3-b]pyridin-5-yl}-cyclohex-3-enyl)-dimethyl-amine], for which the Ki at JAK3, at KDR and at c-KIT was below 0.2 µM throughout.

`CS(=O)(=O)NC1CC=C(c2cnc3[nH]cc(-c4oncc4-c4cccc(F)c4F)c3c2)CC1` (stereo not drawn) [Compound 140, N-(4-{3-[4-(2,3-Difluoro-phenyl)-isoxazol-5-yl]-1H-pyrrolo[2,3-b]pyridin-5-yl}-cyclohex-3-enyl)-methanesulfonamide]: the Ki at JAK3, at KDR and at c-KIT was below 0.2 µM in each case.

On to `CN(C)Cc1ccnc(-c2cnc3[nH]cc(-c4oncc4-c4cccc(F)c4F)c3c2)c1` [Compound 82, (2-{3-[4-(2,3-Difluoro-phenyl)-isoxazol-5-yl]-1H-pyrrolo[2,3-b]pyridin-5-yl}-pyridin-4-ylmethyl)-dimethyl-amine], for which the Ki on JAK3, on KDR and on c-KIT was below 0.2 µM in each case.

Turning to `Fc1ccc(-c2cnc3[nH]cc(-c4oncc4-c4cccc(F)c4F)c3c2)cn1` [Compound 69, 3-[4-(2,3-Difluoro-phenyl)-isoxazol-5-yl]-5-(6-fluoro-pyridin-3-yl)-1H-pyrrolo[2,3-b]pyridine], the values for the inhibition constant (Ki) on JAK3, on KDR and at c-KIT were 0.2 to 1 µM, below 0.2 µM and below 0.2 µM, respectively.
